Reference: patent US20240000872A1, “NOVEL BACTERIOPHAGE THAT LYSES ACINETOBACTER GENUS BACTERIA HAVING RESISTANCE TO ANTIBIOTICS” (priority 2020, published 2024)

System: Acinetobacter baumannii strains
Assay: Antibiotic susceptibility test (CLSI disk diffusion test method, read per CLSI 2016); further: key: ‘S’ means susceptible; ‘I’ means intermediate; ‘R’ means resistant
Type: cell-based

CO/N=C(\C(=O)N[C@@H]1C(=O)N2C(C(=O)O)=C(COC(C)=O)CS[C@H]12)c1csc(N)n1 [Cefotaxime, cefotaxime]
antibiotic susceptibility class (host strain YMC14/01/C29): R
antibiotic susceptibility class (host strain YMC14/01/IP122): R
antibiotic susceptibility class (host strain YMC14/01/L8): R
antibiotic susceptibility class (host strain YMC14/01/P31): R
antibiotic susceptibility class (host strain YMC14/01/P117): R
antibiotic susceptibility class (host strain YMC14/01/P224): R
antibiotic susceptibility class (host strain YMC14/01/P727): R
antibiotic susceptibility class (host strain YMC14/01/P728): R
antibiotic susceptibility class (host strain YMC14/01/R130): R
antibiotic susceptibility class (host strain YMC14/01/R160): R
antibiotic susceptibility class (host strain YMC14/01/R198): R
antibiotic susceptibility class (host strain YMC14/01/R257): R
antibiotic susceptibility class (host strain YMC14/01/R270): R
antibiotic susceptibility class (host strain YMC14/01/R324): R
antibiotic susceptibility class (host strain YMC14/01/R443): R
antibiotic susceptibility class (host strain YMC14/01/R451): R
antibiotic susceptibility class (host strain YMC14/01/R560): R
antibiotic susceptibility class (host strain YMC14/01/R617): R
antibiotic susceptibility class (host strain YMC14/01/R671): R
antibiotic susceptibility class (host strain YMC14/01/R732): R
antibiotic susceptibility class (host strain YMC14/01/R767): R
antibiotic susceptibility class (host strain YMC14/01/R904): R
antibiotic susceptibility class (host strain YMC14/01/R905): R
antibiotic susceptibility class (host strain YMC14/01/R921): R
antibiotic susceptibility class (host strain YMC14/01/R941): R
antibiotic susceptibility class (host strain YMC14/01/R958): R
antibiotic susceptibility class (host strain YMC14/01/R1006): R
antibiotic susceptibility class (host strain YMC14/01/R1199): R
antibiotic susceptibility class (host strain YMC14/01/R1659): R
antibiotic susceptibility class (host strain YMC14/01/R1722): R
antibiotic susceptibility class (host strain YMC14/01/R1752): R
antibiotic susceptibility class (host strain YMC14/01/R2429): R
antibiotic susceptibility class (host strain YMC14/01/R2572): R
antibiotic susceptibility class (host strain YMC14/01/R2855): R
antibiotic susceptibility class (host strain YMC14/01/R2945): R
antibiotic susceptibility class (host strain YMC14/01/R3007): R
antibiotic susceptibility class (host strain YMC14/01/R3129): R
antibiotic susceptibility class (host strain YMC14/01/R3317): R
antibiotic susceptibility class (host strain YMC14/01/R3474): R
antibiotic susceptibility class (host strain YMC14/01/R3574): R
antibiotic susceptibility class (host strain YMC14/01/U313): R
antibiotic susceptibility class (host strain YMC14/01/U318): R
antibiotic susceptibility class (host strain YMC14/02/L18): R
antibiotic susceptibility class (host strain YMC14/02/P47): R
antibiotic susceptibility class (host strain YMC14/02/R1860): R
antibiotic susceptibility class (host strain YMC14/02/R2417): R
antibiotic susceptibility class (host strain YMC14/02/R2599): R
antibiotic susceptibility class (host strain YMC14/02/R2668): R
antibiotic susceptibility class (host strain YMC14/02/R2758): R
antibiotic susceptibility class (host strain YMC14/02/R2781): R
antibiotic susceptibility class (host strain YMC14/02/R3106): R
antibiotic susceptibility class (host strain YMC14/02/R3419): R
antibiotic susceptibility class (host strain YMC14/02/U1607): R
antibiotic susceptibility class (host strain YMC14/03/L9): R
antibiotic susceptibility class (host strain YMC14/03/P471): R
antibiotic susceptibility class (host strain YMC14/03/R122): R
antibiotic susceptibility class (host strain YMC14/03/R217): R
antibiotic susceptibility class (host strain YMC14/03/R380): R
antibiotic susceptibility class (host strain YMC14/03/R618): R
antibiotic susceptibility class (host strain YMC14/03/R2144): R
antibiotic susceptibility class (host strain YMC14/03/U4616): R
antibiotic susceptibility class (host strain YMC14/04/R1078): R
antibiotic susceptibility class (host strain YMC14/04/R1080): R
antibiotic susceptibility S/I/R (host strain YMC14/06/R2359): R
susceptibility category (S/I/R) (host strain YMC14/06/R2359): R
antibiotic susceptibility S/I/R (host strain YMC14/08/R1169): R
susceptibility category (S/I/R) (host strain YMC14/08/R1169): R
antibiotic susceptibility S/I/R (host strain YMC14/08/T90): R
susceptibility category (S/I/R) (host strain YMC14/08/T90): R
antibiotic susceptibility S/I/R (host strain YMC15/02/R436): R
susceptibility category (S/I/R) (host strain YMC15/02/R436): R
antibiotic susceptibility S/I/R (host strain YMC15/02/T28): R
susceptibility category (S/I/R) (host strain YMC15/02/T28): R
antibiotic susceptibility S/I/R (host strain YMC15/03/R1604): R
susceptibility category (S/I/R) (host strain YMC15/03/R1604): R
antibiotic susceptibility S/I/R (host strain YMC15/09/R1869): R
susceptibility category (S/I/R) (host strain YMC15/09/R1869): R
antibiotic susceptibility S/I/R (host strain YMC16/01/P11): R
susceptibility category (S/I/R) (host strain YMC16/01/P11): R
antibiotic susceptibility S/I/R (host strain YMC16/01/R123): R
susceptibility category (S/I/R) (host strain YMC16/01/R123): R
antibiotic susceptibility S/I/R (host strain YMC16/01/R198): R
susceptibility category (S/I/R) (host strain YMC16/01/R198): R
antibiotic susceptibility S/I/R (host strain YMC16/01/R353): R
susceptibility category (S/I/R) (host strain YMC16/01/R353): R
antibiotic susceptibility S/I/R (host strain YMC16/01/R380): R
susceptibility category (S/I/R) (host strain YMC16/01/R380): R
antibiotic susceptibility S/I/R (host strain YMC16/01/R397): R
susceptibility category (S/I/R) (host strain YMC16/01/R397): R
antibiotic susceptibility S/I/R (host strain YMC16/01/R405): R
susceptibility category (S/I/R) (host strain YMC16/01/R405): R
susceptibility category (S/I/R) (host strain YMC16/03/R4461): I
antibiotic susceptibility S/I/R (host strain YMC16/05/R2210): R
susceptibility category (S/I/R) (host strain YMC16/05/R2210): R
antibiotic susceptibility S/I/R (host strain YMC16/07/R2512): R
susceptibility category (S/I/R) (host strain YMC16/07/R2512): R
antibiotic susceptibility S/I/R (host strain YMC16/09/R2471): R
susceptibility category (S/I/R) (host strain YMC16/09/R2471): R
antibiotic susceptibility S/I/R (host strain YMC16/10/R2537): R
susceptibility category (S/I/R) (host strain YMC16/10/R2537): R
antibiotic susceptibility S/I/R (host strain YMC16/12/B11422): R
susceptibility category (S/I/R) (host strain YMC16/12/B11422): R
antibiotic susceptibility S/I/R (host strain YMC16/12/B11449): R
susceptibility category (S/I/R) (host strain YMC16/12/B11449): R
antibiotic susceptibility S/I/R (host strain YMC16/12/B13325): R
susceptibility category (S/I/R) (host strain YMC16/12/B13325): R
antibiotic susceptibility S/I/R (host strain YMC16/12/P503): R
susceptibility category (S/I/R) (host strain YMC16/12/P503): R
antibiotic susceptibility S/I/R (host strain YMC16/12/R4637): R
susceptibility category (S/I/R) (host strain YMC16/12/R4637): R
antibiotic susceptibility S/I/R (host strain YMC17/01/B8053): R
susceptibility category (S/I/R) (host strain YMC17/01/B8053): R
antibiotic susceptibility S/I/R (host strain YMC17/01/B10087): R
susceptibility category (S/I/R) (host strain YMC17/01/B10087): R
antibiotic susceptibility S/I/R (host strain YMC17/01/B12075): R
susceptibility category (S/I/R) (host strain YMC17/01/B12075): R
antibiotic susceptibility S/I/R (host strain YMC17/01/B13454): R
susceptibility category (S/I/R) (host strain YMC17/01/B13454): R
antibiotic susceptibility S/I/R (host strain YMC17/01/P518): R
susceptibility category (S/I/R) (host strain YMC17/01/P518): R
antibiotic susceptibility S/I/R (host strain YMC17/01/R2812): R
susceptibility category (S/I/R) (host strain YMC17/01/R2812): R
antibiotic susceptibility S/I/R (host strain YMC17/02/B14): R
susceptibility category (S/I/R) (host strain YMC17/02/B14): R
antibiotic susceptibility S/I/R (host strain YMC17/02/B87): R
susceptibility category (S/I/R) (host strain YMC17/02/B87): R
antibiotic susceptibility S/I/R (host strain YMC17/02/B721): R
susceptibility category (S/I/R) (host strain YMC17/02/B721): R
antibiotic susceptibility S/I/R (host strain YMC17/02/B4039): R
susceptibility category (S/I/R) (host strain YMC17/02/B4039): R
antibiotic susceptibility S/I/R (host strain YMC17/02/B4520): R
susceptibility category (S/I/R) (host strain YMC17/02/B4520): R
antibiotic susceptibility S/I/R (host strain YMC17/02/B4864): S
susceptibility category (S/I/R) (host strain YMC17/02/B4864): S
antibiotic susceptibility S/I/R (host strain YMC17/02/B8414): R
susceptibility category (S/I/R) (host strain YMC17/02/B8414): R
antibiotic susceptibility S/I/R (host strain YMC17/02/P523): R
susceptibility category (S/I/R) (host strain YMC17/02/P523): R
antibiotic susceptibility S/I/R (host strain YMC17/02/R541): R
susceptibility category (S/I/R) (host strain YMC17/02/R541): R
antibiotic susceptibility S/I/R (host strain YMC17/02/R2392): R
susceptibility category (S/I/R) (host strain YMC17/02/R2392): R
antibiotic susceptibility S/I/R (host strain YMC17/03/B4730): R
susceptibility category (S/I/R) (host strain YMC17/03/B4730): R
antibiotic susceptibility S/I/R (host strain YMC17/03/B5000): R
susceptibility category (S/I/R) (host strain YMC17/03/B5000): R
antibiotic susceptibility S/I/R (host strain YMC17/03/P971): R
susceptibility category (S/I/R) (host strain YMC17/03/P971): R
antibiotic susceptibility S/I/R (host strain YMC17/03/R348): R
susceptibility category (S/I/R) (host strain YMC17/03/R348): R
antibiotic susceptibility S/I/R (host strain YMC17/03/R585): R
susceptibility category (S/I/R) (host strain YMC17/03/R585): R
antibiotic susceptibility S/I/R (host strain YMC17/03/R1888): R
susceptibility category (S/I/R) (host strain YMC17/03/R1888): R
antibiotic susceptibility S/I/R (host strain YMC17/03/R3279): R
susceptibility category (S/I/R) (host strain YMC17/03/R3279): R
antibiotic susceptibility S/I/R (host strain YMC17/03/R4077): R
susceptibility category (S/I/R) (host strain YMC17/03/R4077): R
antibiotic susceptibility S/I/R (host strain YMC17/03/R4607): R
susceptibility category (S/I/R) (host strain YMC17/03/R4607): R
antibiotic susceptibility S/I/R (host strain YMC17/04/R488): R
susceptibility category (S/I/R) (host strain YMC17/04/R488): R
antibiotic susceptibility S/I/R (host strain YMC17/04/R640): R
susceptibility category (S/I/R) (host strain YMC17/04/R640): R
antibiotic susceptibility S/I/R (host strain YMC/17/05/R1095): R
susceptibility category (S/I/R) (host strain YMC/17/05/R1095): R
